Each structure is given as a SMILES string.

In general, IC50 refers to the concentration at which inhibition is half-maximal. The term Ki denotes a dissociation constant, usually derived from enzyme kinetics or from competition with a known ligand. A lower Ki goes with tighter binding.

In assay [1] the target is T1, human CCR3 (Homo sapiens, UniProt P51677).
T1 sequence (P51677 1-355): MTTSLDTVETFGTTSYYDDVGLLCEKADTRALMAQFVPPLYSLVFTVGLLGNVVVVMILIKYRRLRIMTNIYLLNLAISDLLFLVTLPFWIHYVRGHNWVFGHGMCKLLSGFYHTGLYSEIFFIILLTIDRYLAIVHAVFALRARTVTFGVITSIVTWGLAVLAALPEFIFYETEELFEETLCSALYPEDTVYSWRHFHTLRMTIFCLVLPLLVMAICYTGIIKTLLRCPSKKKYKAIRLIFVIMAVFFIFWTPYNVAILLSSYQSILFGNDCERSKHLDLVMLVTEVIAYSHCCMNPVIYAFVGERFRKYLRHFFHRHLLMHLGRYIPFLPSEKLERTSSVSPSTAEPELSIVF
Put plainly: Intracellular calcium (Calcium flux, FLIPR) assay in CREM3 cells. The conditions noted are these: CREM3 cells (human CCR3 in rat Y3 cell line). The assay is classed as cell-based. The arrangement: expressed in transfected cells; host or cells: CREM3 cells (rat Y3 cell line stably expressing human CCR3). The procedure:
An IC50 value was interpolated from the dilution series for each compound and used to calculate a Ki value using the following equation: Ki=IC50/(1+[ligand]/Kd) Intracellular Calcium Assay: Cell Culture:
CREM3 cells, in which the human CCR3 receptor is stably expressed in the rat Y3 cell line, were cultured in DMEM high glucose containing 10% FBS, 50 U/ml penicillin, 50 μg/ml streptomycin, 2 mM L-glutamine, 1 mg/ml G418 (Gemini Bioproducts). Cells were cultured in fresh medium every 2 days.
Intracellular calcium levels were measured using a fluorometric imaging plate reader (FLIPR), (Molecular Devices, Sunnyvale Calif.) as described by the manufacturer. CREM3 cells were cultured overnight at 20,000 cells/well in 96 well black-wall clear bottom plates (Packard), precoated with 100 μg/ml poly D-lysine hydrobromide (Sigma). Adherent CREM3 cells were loaded with 4 μM Fluo-3 AM (Molecular Probes, Eugene, Oreg.), in pH 7.4 HBSS without phenol red, containing 20 mM HEPES, 0.5% FBS, 2.5 mM probenecid (Sigma), 0.04% pluronic acid (Molecular Probes) for 1 h at 37° C. […] Fluorescence data was collected at 1 s interval for 60 s, followed by collection at 2 s intervals for 60 s. Background fluorescence was quantitated in wells containing cells but no chemokines and was subtracted from all experimental samples. […]
In general terms: Calcium assays in cells follow changes in intracellular calcium, usually with a dye or a luminescent sensor.

Assay [2] deals with T1, human CCR3. Put plainly: CCR3 SPA-based receptor binding assay. Details: host or cells: Y3 cell line (rat), selected with G418. The conditions noted are these: [125I]-eotaxin competition, membranes from human CCR3 transfected Y3 cell line. The procedure:
CCR3 SPA-Based Receptor Binding Assay:
The procedure used was disclosed in Dairaghi et al, J. Biol. Chem., 272 (1997), pg. 28206-28209, and is described in detail below.
The source of the CCR3 receptors for this assay was purified membranes from a human CCR3 transfected Y3 cell line. Membranes were prepared by MDS Pharma Services (Bothell, Wash.) as follows. Cells were grown under selection (1 mg/ml G418) in 50-stack cube bioreactors with minimal media recirculation. Cells were harvested with trypsin and washed once with PBS. Cells were resuspended in 20 volumes of ice cold 2.5 mM Tris-HCl, pH 7.4 containing protease inhibitors (0.3 mM PMSF, 3 μg/ml aprotinin, 3 μg/ml luepeptin) and incubated on ice for 15 min. The swollen cells were lysed by vigorous vortexing and large debris was removed by centrifugation (1200 rpm, 5 min., 4° C.). The cleared lysate was subjected to ultra-centrifugation (100,000×g, 1 hr., 4° C.) to pellet the membrane fraction and the membrane fraction was resuspended in 25 mM HEPES, pH 7.6, 75 mM NaCl, 1 mM EDTA. Protease inhibitors were added as described above after a sample was removed for protein determination. The membrane preparation was brought to 6 to 10 mg/ml final concentration and BSA was added to 0.5%. Membranes were stored in 1 ml aliquots (−70° C.). […]

For the molecule `COc1ccc(C(=O)N2CCC(N3CC[C@@H](Cc4ccc(Cl)c(Cl)c4)[C@@H](CO)C3)CC2)c2cccnc12` (relative stereo) [Example 2-EE], in assay [1], the IC50 turned out to be 3.6 nM. In assay [2], this molecule gave an inhibition constant (Ki) of 2.8 nM.

The values are drawn from US7705153B2, “Bipiperdine derivatives useful as CCR3 antagonists” (Schering Corporation, priority 2004, dated 2010).
